Where no end group is shown, it is not given here.
Legend:
[1] = test system: cap-dependent translation; test: In vitro translation of capped Luciferase RNA in RRL; type: biochemical, rabbit; conditions: 15, 30, 60 μM peptide; FIG. 5C
[2] = test system: HCV IRES mediated translation; test: In vitro translation of uncapped HCV-IRES-Luc monocistronic RNA in rabbit reticulocyte lysate; type: biochemical, hepatitis C virus; conditions: RRL; for IC50: uncapped HCV IRES-Luc RNA, data not shown, read-out: IC50 for inhibition of HCV IRES mediated translation
[3] = test system: IRES mediated translation of hepatitis A virus; type: biochemical
[4] = test system: Polio virus IRES function; type: biochemical; conditions: at higher concentration (15, 30, 60 μM tested); FIG. 5E
[5] = test system: HCV IRES mediated translation; test: In vitro translation of capped HCV bicistronic RNA in RRL; conditions: 15, 30, 60 μM peptide; FIG. 5D
[6] = test system: HCV monocistronic replicon; test: HCV negative strand real time PCR in Huh7 cells harboring HCV monocistronic replicon; type: cell-based, hepatitis C virus
HCV IRES RNA = test: UV-crosslinking assay with [32P] labeled HCV IRES RNA; type: binding, hepatitis C virus; conditions: 2 μM and 4 μM peptide; FIG. 6A
Huh7 cells = test: Internalization of fluorescein labeled hexa-arginine-tagged peptides; type: cell-based; conditions: fluorescein tagged peptide, 3 hours incubation; FIG. 6B
[7] = test system: HCV IRES mediated translation; test: HCV bicistronic construct luciferase assay in Huh7 cells with arginine-tagged peptides; type: cell-based, hepatitis C virus; conditions: 2 μM peptide, 4 hours or 6 hours

Substance: KYKETDL [LaR2C-N7]
- Inhibition of capped-Luciferase RNA translation (cap-dependent) [1]: did not show significant inhibition
- IC50 [2]: ~40 µM
- Translation inhibitory activity on HCV IRES-Luc RNA ([2]; 30 and 60 μM (FIG. 3C) or 15, 30 and 60 μM (FIG. 5A, 5B)): only slightly weaker than the 24-mer peptide
- Inhibition of IRES mediated translation of hepatitis A virus [3]: failed to inhibit
- Inhibition of Polio virus IRES function [4]: significant inhibition
- Inhibition of HCV IRES (Fluc) vs cap dependent (Rluc) translation of bicistronic RNA [5]: selective inhibition of HCV IRES mediated translation

Substance: KYKETDLLILFKDDYFAKKNEERK [LaR2C]
- IC50 [2]: 30 µM

Substance: RRRRRRKYKETDL [Arg-LaR2C-N7]
- Decrease in levels of HCV negative strand RNAs compared to untreated cells ([6]; 4 μM peptide added at 0 and 12th hour, RNA at 24th hour): ~50%
- Inhibitory activity on HCV negative strand synthesis ([6]; 10 μM peptide, data not shown): considerable increase in the inhibitory activity
- RNA binding activity of hexa-arginine tagged peptides (UV cross-linking) (HCV IRES RNA): showed RNA binding activity
- Internalization into Huh7 cells (fluorescence microscope) (Huh7 cells): internalized inside Huh7 cells
- Inhibition of HCV IRES mediated translation over the control in Huh7 cells [7]: up to 70%

— patent US20090233868A1, “Small antiviral peptides against hepatitis C virus” (priority 2005, published 2009)
